Test results: the supplement of paper PMC5579334
± gives the standard deviation of the averaged measurements.

Assays:
[1] = tested on: HSC1 (primary human Schwann cells); assay: drug sensitivity score (DSS, CellTiter-Glo viability, 72 h) (DSS (dimensionless)); higher = more sensitive; extreme values may be limits of the assay
Method in brief: (§1)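 After seeding 750–1000 cells per well of MPNST cell lines or primary human Schwann cells into 384-well plates preprinted with each compound at five concentrations in 10-fold steps, plates were kept 72 h at 37 °C, 5% CO2. Viability was read as CellTiter-Glo ATP luminescence relative to vehicle and positive-control wells, with duplicates averaged where present. The data were fitted with four-parameter logistic models. Drug sensitivity score and relative IC50, censored at the top concentration, derive from the fits, and percent inhibition refers to the top concentration.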

[2] = tested on: HSC2 (primary human Schwann cells); assay: as above
Method in brief: as §1

S1507-2 [3] = assay: as above
Method in brief: as §1

S462 [4] = assay: as above
Method in brief: as §1

ST8814 [5] = assay: as above
Method in brief: as §1

STS26T [6] = assay: as above
Method in brief: as §1

[7] = tested on: HSC1 (primary human Schwann cells); assay: drug sensitivity score (DSS, CellTox-Green cytotoxicity, 72 h) (DSS (dimensionless)); higher = more cytotoxic; extreme values may be limits of the assay
Method in brief: (§2)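 For 72 h at 37 °C, MPNST cell lines and primary human Schwann cells were exposed in 384-well plates to five 10-fold compound dilutions. CellTox-Green, added before seeding at a final 1:1000 dilution, gave fluorescence from DNA released by disrupted cells. Signals were scaled to vehicle and positive-control wells, cultures failing plate quality control were left out, and four-parameter logistic fits were applied. Relative IC50 and drug sensitivity score were derived from the fits, with IC50 censored at the top concentration.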

[8] = tested on: HSC2 (primary human Schwann cells); assay: as above
Method in brief: as §2

S1507-2 [9] = assay: as above
Method in brief: as §2

ST8814 [10] = assay: as above
Method in brief: as §2

STS26T [11] = assay: as above
Method in brief: as §2

[12] = tested on: HSC1 (primary human Schwann cells); assay: % inhibition of CellTiter-Glo viability at highest tested concentration (72 h), relative to DMSO and benzethonium chloride controls; higher = more inhibition
Method in brief: as §1

[13] = tested on: HSC2 (primary human Schwann cells); assay: as above
Method in brief: as §1

S1507-2 [14] = assay: as above
Method in brief: as §1

S462 [15] = assay: as above
Method in brief: as §1

ST8814 [16] = assay: as above
Method in brief: as §1

STS26T [17] = assay: as above
Method in brief: as §1

Row | Compound | drug sensitivity score [1] | drug sensitivity score [2] | drug sensitivity score (S1507-2 [3]) | drug sensitivity score (S462 [4]) | drug sensitivity score (ST8814 [5]) | drug sensitivity score (STS26T [6]) | drug sensitivity score [7] | drug sensitivity score [8] | drug sensitivity score (S1507-2 [9]) | drug sensitivity score (ST8814 [10]) | drug sensitivity score (STS26T [11]) | % inhibition [12] [%] | % inhibition [13] [%] | % inhibition (S1507-2 [14]) [%] | % inhibition (S462 [15]) [%] | % inhibition (ST8814 [16]) [%] | % inhibition (STS26T [17]) [%]
1 | Cc1sc2c(c1C)C(c1ccc(Cl)cc1)=N[C@H](CC(=O)OC(C)(C)C)c1nnc(C)n1-2 [(-)JQ1] (max concentration tested 10000 nM) | 0.0114 | 0.217 | 0.382 ± 0.54 | 0.987 ± 0.67 | 0.724 | 0.598 | 0 | 0 | 0 | 0 | 0 | 11 | 15.6 | 12.5 ± 8.2 | 21.6 ± 8.9 | 20 | 15.6
2 | Cn1nnc2c(C(N)=O)ncn2c1=O [Temozolomide] (max concentration tested 10000 nM) | 0 | 0 | 0.17 ± 0.24 | 0 | 0.0241 | 0 | 0 | 0 | 0 | 0 | 0 | 8.86 | 2.06 | 9.8 ± 9.4 | 2.61 ± 0.65 | 11.9 | 8.32
3 | Nc1cccc2c1CN(C1CCC(=O)NC1=O)C2=O (centres undefined) [Lenalidomide] (max concentration tested 10000 nM) | 0.47 | 0.0019 | 1.35 ± 1.9 | 0 | 0 | 0 | 0 | 2.65 | 0 | 0 | 0 | 9.28 | 11 | 10.8 ± 9.4 | 2.04 ± 9.8 | 3.01 | 0.527
4 | O=C(O)C1(C(=O)O)CCC1.[NH2-].[NH2-].[Pt+2] [Carboplatin aq] (max concentration tested 100000 nM) | 8.01 | 8.82 | 5.78 ± 1.4 | 8.728 ± 0.04 | 6.09 | 6.61 | 6.3 | 7.86 | 2.71 ± 1.2 | 6.79 | 4.47 | 85.9 | 93.2 | 73.8 ± 1.3 | 98.3 ± 1 | 87.5 | 81.2
5 | Cc1c(CN2CCN(C(=O)[C@H](C)O)CC2)sc2c(N3CCOCC3)nc(-c3cnc(N)nc3)nc12 [GDC-0980] (max concentration tested 10000 nM) | 11.8 | 12.5 | 12.2 ± 0.97 | 10.5 ± 0.55 | 9.92 | 12.5 | 0 | 0 | 0.544 ± 0.76 | 1.59 | 0 | 82.8 | 80.9 | 79.39 ± 0.55 | 76.6 ± 3.3 | 90 | 83.4
6 | CC1=C2C[C@H]3[C@@H](CC=C4C[C@@H](O)CC[C@@]43C)[C@@H]2CC[C@]12O[C@@H]1C[C@H](C)CN[C@H]1[C@H]2C [Cyclopamine] (max concentration tested 10000 nM) | 0 | 0 | 0.114 ± 0.16 | 0 | 0 | 0 | 0 | 0 | 0.06 ± 0.085 | 0 | 0 | 9.19 | 7.88 | 11.5 ± 3 | -1.34 ± 2.9 | -4.3 | 4.33
7 | Cc1ccc([N+](=O)[O-])cc1S(=O)(=O)N(C)/N=C/c1cnc2ccc(Br)cn12 [PIK-75] (max concentration tested 10000 nM) | 19.7 | 21.1 | 17.9 ± 1.9 | 21.2 ± 0.91 | 17.7 | 22.3 | 7.46 | 9.74 | 8.99 ± 6.5 | 5.5 | 14.6 | 91.1 | 95.4 | 97.021 ± 0.018 | 101.9 ± 0.78 | 89.1 | 102
8 | COC1=C2C[C@@H](C)C[C@H](OC)[C@H](O)[C@@H](C)/C=C(\C)[C@H](OC(N)=O)[C@@H](OC)/C=C\C=C(/C)C(=O)NC(=CC1=O)C2=O [Geldanamycin] (max concentration tested 10000 nM) | 16.7 | 16.7 | 8.65 ± 0.52 | 15.8 ± 0.19 | 12 | 12.3 | 20.4 | 20.2 | 5.24 ± 1.8 | 2.65 | 8.09 | 96.7 | 94.7 | 97.21 ± 0.53 | 98.4 ± 1.8 | 90.6 | 94.2
9 | CCN(CC)CCCC(C)Nc1c2ccc(Cl)cc2nc2ccc(OC)cc12 (centres undefined) [Mepacrine aq] (max concentration tested 50000 nM) | 18.6 | 18 | 19.92 ± 0.17 | 20.5 ± 1.6 | 20.5 | 18.9 | 20.7 | 19.6 | 23.5 ± 4.6 | 14.7 | 15.8 | 95.9 | 95 | 98.51 ± 0.17 | 95.06 ± 0.61 | 96.3 | 96.5
10 | Cc1c(C(=O)Nc2ccc(N3C[C@@H](C)O[C@@H](C)C3)nc2)cccc1-c1ccc(OC(F)(F)F)cc1 [Erismodegib] (max concentration tested 10000 nM) | 0 | 0 | 0.871 ± 1.2 | 0 | 0 | 0.451 | 1.48 | 4.95 | 14.8 ± 20 | 0 | 0 | 9.09 | 8.65 | 9.49 ± 1.4 | 13.2 ± 2.2 | 1.35 | 16.9
11 | Oc1ncc(N(CCCl)CCCl)c(O)n1 [Uracil mustard] (max concentration tested 10000 nM) | 0 | 0 | 0 | 0 | 0 | 0 | 0 | 0 | 0 | 0 | 0 | 5.98 | 5.29 | -1.65 ± 8.9 | -1.32 ± 0.75 | 10.8 | 1.52
12 | Cn1cc(C[C@@H](N)C(=O)O)c2ccccc21 [1-methyl-D-tryptophan aq] (max concentration tested 5000 nM) | 0 | 0 | 0 | 0 | 0 | 0 | 0 | 0.888 | 0.475 ± 0.58 | 0 | 0.0551 | 4.52 | 1.85 | 0.132 ± 6.3 | 0.824 ± 5.1 | -2.14 | -5.75
13 | CCCC(CCC)C(=O)O [Valproic acid aq] (max concentration tested 1000000 nM) | 4.34 | 4.4 | 1.59 ± 0.097 | 2.44 ± 0.31 | 3.83 | 1.5 | 0 | 0 | 0 | 0.307 | 0 | 68.2 | 59 | 20.7 ± 3.2 | 31.3 ± 17 | 44.4 | 28.3
14 | COc1ncc(-c2ccc3nccc(-c4ccnnc4)c3c2)cc1NS(=O)(=O)c1ccc(F)cc1F (max concentration tested 1000 nM) | 16.1 | 15.8 | 14 ± 0.98 | 10.1 ± 1.8 | 12.8 | 16.6 | 0 | 0 | 0.225 ± 0.23 | 4 | 0.0475 | 84.4 | 84.1 | 72.9 ± 5.3 | 75.23 ± 0.42 | 90 | 83.4
15 | CC(C)NC[C@@H](C(=O)N1CCN(c2ncnc3c2[C@H](C)C[C@H]3O)CC1)c1ccc(Cl)cc1 [GDC-0068] (max concentration tested 10000 nM) | 0.374 | 0 | 2.03 ± 1 | 0.195 ± 0.28 | 0.785 | 5.77 | 0 | 0 | 0 | 0 | 0 | 21.6 | 6.99 | 31.5 ± 4.2 | 13.5 ± 7.9 | 17.1 | 44
16 | NC(=O)c1cccc2cn(-c3ccc(C4CCCNC4)cc3)nc12 (centres undefined) [MK-4827] (max concentration tested 10000 nM) | 2.86 | 1.47 | 5.09 ± 0.48 | 8.55 ± 0.22 | 8.12 | 6.01 | 0 | 0 | 0.763 ± 1.1 | 4.56 | 0.673 | 40 | 23.4 | 57.5 ± 6.1 | 86.1 ± 3 | 89.5 | 67.6
17 | CC(=O)N(O)CCCCCNC(=O)CCC(=O)N(O)CCCCCNC(=O)CCC(=O)N(O)CCCCCN [Deferoxamine aq] (max concentration tested 10000 nM) | 5.55 | 7.69 | 6.96 ± 1 | 6.82 ± 1.4 | 9.08 | 5.09 | 0 | 0 | 0.026 ± 0.037 | 3.55 | 0 | 60.6 | 64.9 | 61 ± 2.2 | 74.6 ± 9.3 | 88.2 | 52.3
